According to patent US10175256B2, “Compositions and methods utilizing lysophosphatidylcholine scaffolds” (National University Of Singapore, priority 2013, dated 2019):
Several values for one entry are separate records, joined by “and”; a condition that tells them apart may be missing. Equal values may be shown once.

Legend:
Mfsd2a [1] = biological target: T1, Mfsd2a (Mus musculus, UniProt Q9DA75); assay: In vivo transport of radiolabeled, fluorescent LPCs and unesterified DHA in Mfsd2a KO and wild-type mice; set-up: from tissue; host or cells: living mice; brain (blood-brain barrier endothelium), liver, heart; fetal brain
T1 sequence (Q9DA75 1-534): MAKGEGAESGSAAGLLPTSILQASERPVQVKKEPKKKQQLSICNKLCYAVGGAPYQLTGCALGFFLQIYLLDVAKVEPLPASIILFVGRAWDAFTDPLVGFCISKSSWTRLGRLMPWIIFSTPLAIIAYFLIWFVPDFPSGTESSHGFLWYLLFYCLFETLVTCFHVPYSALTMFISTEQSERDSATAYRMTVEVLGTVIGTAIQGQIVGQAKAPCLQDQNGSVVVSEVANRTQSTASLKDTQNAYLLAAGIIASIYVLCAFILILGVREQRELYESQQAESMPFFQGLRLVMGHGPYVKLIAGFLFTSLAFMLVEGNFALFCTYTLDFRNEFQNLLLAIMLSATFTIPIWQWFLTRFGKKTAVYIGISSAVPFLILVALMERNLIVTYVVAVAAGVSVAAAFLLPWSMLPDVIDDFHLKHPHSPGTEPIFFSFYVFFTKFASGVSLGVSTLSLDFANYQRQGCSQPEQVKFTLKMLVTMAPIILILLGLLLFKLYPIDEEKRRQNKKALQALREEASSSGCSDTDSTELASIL
Protocol: Male and female mice of age of 6-8 weeks were IV injected with 75 μl of 20 mM radiolabeled LPC-[…], 100 μl of 10 mM LPC-[^14C]DHA/BSA complex or 82 μl of 12.2 mM [^14C]DHA/BSA complex in a total volume of 150 μl of phosphate-buffered saline. At 2 hours post injection, mice were anesthetized and perfused for 5 mins with PBS containing 0.5% BSA in order to remove blood and lipid tracer bound to the brain vasculature. Tissues were harvested for lipid extraction. For lipid extraction, tissues were weighed and similar amounts of tissues were homogenized in chloroform/methanol. Lipids from the organic phase were mixed with scintillant and scintillation counted. Similar experiments were also performed with an injection of 300 μg NBD-LPC/BSA or 300 μg TopFluor-LPC/BSA complex per mouse. In this experiment, mice were perfused for 5 mins with PBS followed 15 mins perfusion with 4% paraformaldehyde (PFA) for tissue fixation. Brain sections of WT and KO with a thickness of 40 μm were prepared and scanned using green fluorescence mode in Typhoon FLA 9000 scanner (Agilent). NBD-LPC accumulation was expressed as fluorescence of each section per its area. Dietary DHA transport from mother to fetus was also measured using [^14C]DHA/BSA complex. Pregnant females at e18.5 was gavaged with bolus of [^14C]DHA/BSA complex (200 μl of 10 mM [^14C]DHA/BSA/mouse). Brain of fetuses were collected 20 hours post-gavage and weighed. Lipid extraction and radioactivity were performed as described above.

Mfsd2a [2] = biological target: T1, Mfsd2a; assay: Dietary DHA transport from mother to fetus (fetal brain uptake); type: in vivo, mice; set-up: from tissue; host or cells: living mice; brain (blood-brain barrier endothelium), liver, heart; fetal brain
Protocol: FIG. 21. […] Heterozygous female mice were gavaged with 100 ul DHA oil (containing 26% DHA triglyceride and 6% EPA, total omega-3 is 35%) every 2 days for 2 weeks prior to conception in crosses with KO males. […] The rationale for using HET and KO intercrosses was to increase the yield of KO mice in this rescue study. During gestation, pregnant mice were continued on gavages of DHA every 2 days. Gavages of mothers continued during breastfeeding and pups were weaned onto normal diet at 3 weeks of age and gavaged every 2 days with DHA for 8 weeks. a, brain weight of adult WT (n=4) and KO (n=4) mice aged 8 weeks after treatment with dietary DHA oil. […] To test this possibility, pregnant het mothers intercrossed to KO fathers at e17.5-e19.5, were gavaged with [^14C]DHA and uptake into fetal brains were quantified. […] Data are expressed as mean±SEM. *P<0.05. ***P<0.001.
Male and female mice of age of 6-8 weeks were IV injected with 75 μl of 20 mM radiolabeled LPC-[…], 100 μl of 10 mM LPC-[^14C]DHA/BSA complex or 82 μl of 12.2 mM [^14C]DHA/BSA complex in a total volume of 150 μl of phosphate-buffered saline. […] Lipids from the organic phase were mixed with scintillant and scintillation counted. […] Brain sections of WT and KO with a thickness of 40 μm were prepared and scanned using green fluorescence mode in Typhoon FLA 9000 scanner (Agilent). […]

mouse Mfsd2a [3] = biological target: T2, mouse Mfsd2a (Mus musculus, UniProt Q9DA75); assay: Cell-based free fatty acid transport/uptake in Mfsd2a expressing HEK293 cells (mass spectrometry, TLC; Table 1); conditions: for % DHA in PC + lysoPC / % DHA in PE + lysoPE / % DHA in PI and lysoPI / % DHA in PS: Mfsd2a expressing HEK293 cells
T2 construct: expressed in transfected cells; host or cells: HEK293
T2 sequence (Q9DA75 1-534): T1 sequence (Q9DA75 1-534)
Method in brief: (§1)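 HEK293 cells expressing mouse Mfsd2a, or mock controls, were incubated overnight with 100 μM BSA-complexed fatty acids. Lipids were extracted in hexane:isopropanol (3:2) and phospholipid species quantified by HPLC-MS/MS against spiked internal standards. For TLC, cells received 100 μM [^14C]-oleate overnight, and phospholipids and neutral lipids were resolved.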

mouse Mfsd2a [4] = assay: as above; conditions: mock HEK293 cells
Method in brief: as §1

[5] = 100 uM Alpha-linolenic fatty acid/BSA overnight, replicate columns
[6] = 100 uM Arachidonic fatty acid/BSA overnight
[7] = 100 uM Eicosapentaenoic fatty acid/BSA overnight
[8] = 100 uM Docosahexaenoic acid/BSA overnight
[9] = 100 uM Eicosapentaenoic acid/BSA overnight
[10] = 100 uM Linoleic fatty acid/BSA overnight
[11] = 100 uM Oleic fatty acid/BSA overnight

- brain uptake in KO mice relative to wild-type (Mfsd2a [1]; i.v. injection, 2 hrs post-injection, radiolabel): not reduced
- brain uptake, unesterified DHA compared with LPC-DHA (Mfsd2a [1]; wild-type brain, same amount injected i.v., 2 hrs): significantly lower
- brain uptake by KO embryos compared to wild-type embryos (Mfsd2a [2]; e18.5, maternal gavage): dramatically reduced
- reduction in fetal brain uptake, KO relative to het (Mfsd2a [2]; pregnant het mothers gavaged at e17.5-e19.5): 80%
- transport of unesterified fatty acid by Mfsd2a (mouse Mfsd2a [3]; HEK293 cells, 100 μM fatty acid/BSA overnight): did not transport
- % DHA in PE + lysoPE (mouse Mfsd2a [3]; [6]): 7.284% and 8.765% and 7.721% and 8.735%
- % DHA in PE + lysoPE (mouse Mfsd2a [3]; [7]): 18.3299% and 16.89% and 16.6% and 16.53%
- % DHA in PE + lysoPE (mouse Mfsd2a [3]; [8]): 26.88% and 25.05% and 25.61% and 24.93%
- % DHA in PE + lysoPE (mouse Mfsd2a [3]; [11]): 10.39% and 10.24% and 9.206% and 11.33%
SMILES: CCC=CCC=CCC=CCC=CCC=CCC=CCC[14C](=O)O [[^14C]DHA, [1-^14C]docosahexaenoic acid, reference compound]
- % DHA in PC + lysoPC (mouse Mfsd2a [3]; [5]): 0.2353% and 0.2194% and 0.2422% and 0.2191%
- % DHA in PE + lysoPE (mouse Mfsd2a [3]; [5]): 13.49% and 15.19% and 13.82% and 14.8475%
- % DHA in PI and lysoPI (mouse Mfsd2a [3]; [5]): 0.05995% and 0.06331% and 0.07073% and 0.06627%
- % DHA in PS (mouse Mfsd2a [3]; [5]): 0.1602% and 0.1425% and 0.1723% and 0.1454%
- % DHA in PC + lysoPC (mouse Mfsd2a [3]; [6]): 0.08166% and 0.07964% and 0.09753% and 0.09194%
- % DHA in PI and lysoPI (mouse Mfsd2a [3]; [6]): 0.01388% and 0.01389% and 0.0161% and 0.01507%
- % DHA in PS (mouse Mfsd2a [3]; 100 uM Arachidonic fatty acid/BSA overnight, replicate columns): 0.1231% and 0.1085% and 0.1181% and 0.1151%
- % DHA in PI and lysoPI (mouse Mfsd2a [3]; [7]): 0.048% and 0.05677% and 0.0498% and 0.05152%
- % DHA in PS (mouse Mfsd2a [3]; [7]): 0.2062% and 0.2182% and 0.1861% and 0.2178%
- % DHA in PC + lysoPC (mouse Mfsd2a [3]; 100 uM Linoleic fatty acid/BSA overnight, replicate columns): 0.06735% and 0.06556% and 0.06667% and 0.06486%
- % DHA in PC + lysoPC (mouse Mfsd2a [3]; [8]): 0.4167% and 0.3839% and 0.3923% and 0.3416%
- % DHA in PI and lysoPI (mouse Mfsd2a [3]; [8]): 0.2363% and 0.1967% and 0.2348% and 0.1831%
- % DHA in PS (mouse Mfsd2a [3]; [8]): 0.4937% and 0.5293% and 0.485% and 0.4533%
- % DHA in PC + lysoPC (mouse Mfsd2a [3]; [9]): 0.1577% and 0.1414% and 0.143% and 0.141%
- % DHA in PE + lysoPE (mouse Mfsd2a [3]; [10]): 10.0396% and 9.979% and 10.14% and 10.29%
- % DHA in PI and lysoPI (mouse Mfsd2a [3]; [10]): 0.01746% and 0.01513% and 0.01522% and 0.01521%
- % DHA in PS (mouse Mfsd2a [3]; [10]): 0.1229% and 0.1239% and 0.1343% and 0.1145%
- % DHA in PC + lysoPC (mouse Mfsd2a [3]; [11]): 0.04304% and 0.04054% and 0.04274% and 0.04139%
- % DHA in PI and lysoPI (mouse Mfsd2a [3]; [11]): 0.01405% and 0.01452% and 0.01424% and 0.01275%
- % DHA in PC + lysoPC (mouse Mfsd2a [4]; [6]): 0.09113% and 0.09288% and 0.09495%
- % DHA in PE + lysoPE (mouse Mfsd2a [4]; [6]): 8.696% and 8.987% and 7.919%
- % DHA in PI and lysoPI (mouse Mfsd2a [4]; [6]): 0.01273% and 0.01321% and 0.01121%
- % DHA in PE + lysoPE (mouse Mfsd2a [4]; [7]): 15.99% and 18.52% and 17.73%
- % DHA in PI and lysoPI (mouse Mfsd2a [4]; [7]): 0.03815% and 0.04977% and 0.04803%
- % DHA in PS (mouse Mfsd2a [4]; [7]): 0.1841% and 0.2258% and 0.1957%
- % DHA in PC + lysoPC (mouse Mfsd2a [4]; [8]): 0.4237% and 0.3234% and 0.432%
- % DHA in PE + lysoPE (mouse Mfsd2a [4]; [8]): 26.43% and 26.89% and 27.48%
- % DHA in PI and lysoPI (mouse Mfsd2a [4]; [8]): 0.204% and 0.2547% and 0.2244%
- % DHA in PS (mouse Mfsd2a [4]; [8]): 0.5491% and 0.6402% and 0.653%
- % DHA in PC + lysoPC (mouse Mfsd2a [4]; [9]): 0.1385% and 0.1469% and 0.1528%
- % DHA in PE + lysoPE (mouse Mfsd2a [4]; [10]): 9.697% and 10.5% and 10.2%
- % DHA in PI and lysoPI (mouse Mfsd2a [4]; [10]): 0.01565% and 0.01716% and 0.01581%
- % DHA in PS (mouse Mfsd2a [4]; [10]): 0.1596% and 0.1455% and 0.1427%
- % DHA in PC + lysoPC (mouse Mfsd2a [4]; [11]): 0.04427% and 0.04402% and 0.04911%
- % DHA in PE + lysoPE (mouse Mfsd2a [4]; [11]): 10.41% and 11.83% and 10.1%
- % DHA in PI and lysoPI (mouse Mfsd2a [4]; [11]): 0.01286% and 0.01294% and 0.01231%
